Results from patent US20200046671A1, “APOBEC3B MUTAGENESIS AND IMMUNOTHERAPY” (Regents of the University of Minnesota, priority 2015, published 2020).
Entries after “also recorded” stand apart in the source; their conditions may differ. Peptide text beside a SMILES is read from it. * marks the point of attachment. Cbz = O=C(OCc1ccccc1)*

Legend:
Assay type in all cases: cell-based, human
cancer cell lines = assay: Cell cycle and viability of AEB071-treated cancer cell lines; conditions: 10 μM, 48 hours, data not shown
Protocol: (§1) Each line was treated for 48 hours with 10 μM AEB071, and then APOBEC3B mRNA and protein levels were quantified by RT-qPCR and immunoblotting. As above, no effects on the cell cycle or cell viability were observed (data not shown). This is important since higher concentrations of AEB071 are known to cause cell cycle perturbations and apoptosis in certain cell types. APOBEC3B mRNA levels were reduced by more than half in 7/16 cell lines, including the breast cancer cell lines MDA-MB-468, MDA-MB-453, and HCC1806, the ovarian cancer cell line OVCAR5, and the head/neck lines SQ-20B, JSQ3, and TR146 (FIG. 4B, histogram). Changes of protein levels largely mirrored the mRNA results (FIG. 4B, immunoblot).

APOBEC3B [1] = assay: Endogenous APOBEC3B expression in cancer cell lines treated with PKC inhibitor; conditions: 10 μM, 48 hours; breast, ovarian, bladder and head/neck cancer cell lines
Protocol: Four breast cancer cell lines, four ovarian cancer cell lines, four bladder cancer cell lines, and four head/neck cancer cell lines were analyzed to determine whether the constitutively high levels of endogenous APOBEC3B observed in many human cancer cell lines occurs through the PKC pathway. The selected cell lines expressed a 10-fold range of endogenous APOBEC3B mRNA levels (FIG. 4A).
as §1

[2] = tested on: PMA-induced APOBEC3B upregulation; assay: Inhibitor pretreatment before PMA induction of APOBEC3B in MCF10A cells, RT-qPCR
Protocol: PMA is a well-known agonist of PKC, but it also affects other cellular processes. To determine whether APOBEC3B induction by PMA occurs through PKC signal transduction or an alternative mechanism, a panel of existing PKC inhibitors that vary with respect to class selectivity were analyzed. MCF10A cells were pre-treated for 30 minutes with varying concentrations of the pan-PKC inhibitor G66983 (Gschwendt et al., FEBS Lett. 392(2):77-80, 1996) and then treated for six hours with PMA (25 ng/mL). […] As additional controls, MCF10A cells were pretreated in parallel with the phosphoinositol 3 kinase (PI3K) inhibitor, LY294002, and the mitogen-activated protein kinase kinase (MEK) inhibitor, U0126, prior to PMA induction (FIGS. 2B and 2C).
(§2) For induction experiments, 2.5×10^5 cells were plated in a 6-well plate 1 day prior to drug treatment. PMA was then added to the media and incubated at 37° C. with 5% CO2 for six hours unless otherwise indicated. Cells were harvested, RNA was extracted, and RT-qPCR was performed as previously reported (Refsland et al. 2010, Nucleic Acids Res 38:4274-4284). For experiments utilizing inhibitors, cells were pretreated with inhibitors 30 minutes prior to PMA induction (25 ng/mL). PMA (Thermo Fisher Scientific, Inc., Waltham, Mass.), cyclohexamide (Acros Organics, Thermo Fisher Scientific, Inc., Waltham, Mass.), G66983 (Cayman Chemical co., Ann Arbor, Mich.), LY294002 (EMD Chemicals, Merck KGaA, Darmstadt, Germany), U0126 (EMD Chemicals, Merck KGaA, Darmstadt, Germany), AEB071 (Medchemexpress, Monmouth Junction, N.J.), Go6976 (Enzo Life Sciences, Inc., Farmingdale, N.Y.), BAY 11-7082 (R&D Systems, INc., Minneapolis, Minn.), and MG132 (Thermo Fisher Scientific, Inc., Waltham, Mass.) were stored as recommended. NIKi/Compound 31 was synthesized as described (Li et al., 2013, Bioorganic & Medicinal Chemistry Letters 23:1238-1244).

MCF10A cells = assay: Morphology and viability of inhibitor-treated MCF10A cells; conditions: low concentrations used (5 μM and around), data not shown
Protocol: PMA is a well-known agonist of PKC, but it also affects other cellular processes. To determine whether APOBEC3B induction by PMA occurs through PKC signal transduction or an alternative mechanism, a panel of existing PKC inhibitors that vary with respect to class selectivity were analyzed. MCF10A cells were pre-treated for 30 minutes with varying concentrations of the pan-PKC inhibitor G66983 (Gschwendt et al., FEBS Lett. 392(2):77-80, 1996) and then treated for six hours with PMA (25 ng/mL). […] APOBEC3B was suppressed to background levels with 5 μM G66983, as well as higher concentrations (FIG. 2A). […] As additional controls, MCF10A cells were pretreated in parallel with the phosphoinositol 3 kinase (PI3K) inhibitor, LY294002, and the mitogen-activated protein kinase kinase (MEK) inhibitor, U0126, prior to PMA induction (FIGS. 2B and 2C).

PKCα (PRKCA) = assay: RNA sequencing of PMA-treated MCF10A cells, PKC isoforms; conditions: RNAseq, in comparison to DMSO
Protocol: (§3) Two sets of MCF10A cells in duplicate were treated every eight hours with media supplemented with PMA or DMSO for 48 hours. At 48 hours, RNA was extracted using an RNeasy Mini Kit (Qiagen, Hilden, Germany). Total RNA was submitted to the University of Minnesota Genomics Center for sequencing on the Illumina HiSeq 2000 platform. Raw reads were analyzed using both DESeq2 (Love et al., 2014, Genome Biol. 15:550) and the Tuxedo suite (Trapnell et al., 2012, Nat Protoc. 7:562-578) to identify changes in mRNA expression in PMA treated versus untreated cells.

APOBEC family members = assay: mRNA levels of the other APOBEC family members after PMA treatment, RT-qPCR; conditions: MCF10A cells
Protocol: (§4) A panel of immortalized normal human epithelial cells lines and breast cancer cell lines was treated with the model PKC-NFκB pathway activator PMA (or equal amounts of DMSO as a negative control) and previously validated reverse transcription quantitative PCR (RT-qPCR) assays were used to measure mRNA levels of all eleven human APOBEC family members. APOBEC3B mRNA was induced specifically by PMA treatment of several lines including the immortalized normal breast epithelial cell line MCF10A (FIG. 6). Under standard cell culture conditions, MCF10A expresses low levels of APOBEC3B and APOBEC3F, even lower levels of APOBEC3G and APOBEC3H, high levels of APOBEC3C, and undetectable levels of all other APOBEC family members.
For induction experiments, 2.5×10^5 cells were plated in a 6-well plate 1 day prior to drug treatment. PMA was then added to the media and incubated at 37° C. with 5% CO2 for six hours unless otherwise indicated. Cells were harvested, RNA was extracted, and RT-qPCR was performed as previously reported (Refsland et al. 2010, Nucleic Acids Res 38:4274-4284). For experiments utilizing inhibitors, cells were pretreated with inhibitors 30 minutes prior to PMA induction (25 ng/mL). […]

APOBEC3B promoter region = assay: Chromatin immunoprecipitation after PMA treatment of MCF10A cells; conditions: PMA for two hours, ChIP-qPCR
Protocol: Next, a series of chromatin immunoprecipitation (ChIP) experiments were performed to determine whether the canonical or noncanonical NFκB pathway is responsible for upregulating APOBEC3B. Primer sets were designed for each of the predicted NFκB binding sites near the APOBEC3B transcriptional start site, as well as a control set in the promoter region of NFKBIA (FIG. 3E). ChIP was performed for RELA, RELB, RNA POL II (positive control), and isotype matched IgG (negative control). RELA, RELB, and RNA POL II were all bound to the NFKBIA promoter following PMA treatment (FIG. 3F). In addition, RNA POL II strongly bound to the APOBEC3B gene near the transcriptional start site (FIG. 3F). Also, RELB bound both near the transcriptional start site and at sites 4 and 5, which are located in intron 2 and too close together to be distinguished by this procedure. Binding also may occur at lower levels at site 3 in intron 1, but the IgG signal was too high to distinguish background from actual binding. These ChIP data strongly implicate the noncanonical NFκB pathway, specifically RELB (and not RELA), in directly inducing APOBEC3B transcription in response to PMA activation of PKC.
MCF10A cells were treated with either DMSO or 25 ng/mL PMA for two hours. Cross-linking was performed with 1% formaldehyde for 10 minutes at room temperature and quenched with 150 mM glycine. […]

[3] = tested on: RELA, NFKB1, RELB and NFKB2; assay: RNA sequencing of PMA-treated MCF10A cells, NFκB components; conditions: RNAseq
Protocol: as §3

APOBEC3B [4] = assay: PMA induction of APOBEC3B mRNA in MCF10A cells, RT-qPCR
Protocol: as §4, §2

[5] = 30-minute pretreatment, then PMA 25 ng/mL for six hours

In the case of `CN1CCN(c2nc(C3=C(c4c[nH]c5ccccc45)C(=O)NC3=O)c3ccccc3n2)CC1` [AEB071], the “effects on the cell cycle or cell viability” value (cancer cell lines) was “no effects”, the “cell lines in which APOBEC3B mRNA levels were reduced by more than half” value (APOBEC3B [1]) was 7/16 and the “potency relative to G66983 in suppressing APOBEC3B induction” value [2] was “approximately 10 fold”. For the same compound, the “effect on PMA-induced APOBEC3B induction” value [2, 5] was “inhibited; also recorded: clear dose dependent suppression” and the “concentration causing complete suppression of APOBEC3B induction” value ([2]; pretreatment, then PMA) was 500 nM.
With `Cc1ccc(S(=O)(=O)/C=C/C#N)cc1` [BAY 11-7082] the “effect on PMA-induced APOBEC3B induction” value [2, 5] was “dose responsive inhibition; also recorded: strong dose-responsive drops”.
For `CN(C)CCCn1cc(C2=C(c3c[nH]c4ccccc34)C(=O)NC2=O)c2ccccc21` [BIM-1], the “effect on PMA-induced APOBEC3B induction” value [2, 5] was “inhibited”.
`COc1ccc2c(c1)c(C1=C(c3c[nH]c4ccccc34)C(=O)NC1=O)cn2CCCN(C)C` [G66983] was tested, and the “morphological defects or viability issues” value (MCF10A cells) was “No morphological defects or viability issues”, the “concentration at which APOBEC3B was suppressed to background levels” value [2, 5] was 5 µM and the “effect on PMA-induced APOBEC3B induction” value [2, 5] was “dose responsive suppression”. For the same compound, the “effect on PMA-induced APOBEC3B induction” value ([2]; 30-minute pretreatment, then PMA 25 ng/mL for six hours, listed as Go6983) was “inhibited”.
In the case of `Cn1c2ccccc2c2c3c(c4c5ccccc5n(CCC#N)c4c21)CNC3=O` [Go6976], the “effect on PMA-induced APOBEC3B induction” value [2, 5] was “inhibited”.
In the case of `CC(C)C[C@@H](C=O)NC(=O)[C@H](CC(C)C)NC(=O)[C@H](CC(C)C)NC(=O)OCc1ccccc1` [MG132] (Cbz-Leu-Leu-Leu-aldehyde), the “effect on PMA-induced APOBEC3B induction” value [2, 5] was “dose responsive inhibition; also recorded: decreased in a dose dependent manner”.
With `CCCCCCCCCCCCCC(=O)O[C@@H]1[C@@H](C)[C@@]2(O)[C@@H](C=C(CO)C[C@]3(O)C(=O)C(C)=C[C@@H]23)[C@@H]2C(C)(C)[C@]12OC(C)=O` [PMA, phorbol 12-myristate 13-acetate] the “PKCα mRNA levels after PMA treatment” value (PKCα (PRKCA)) was “unchanged”, the “changes in expression levels of other APOBEC family members” value (APOBEC family members) was “no detectable changes” and the “recruitment of RELB and p105/p52 to the APOBEC3B promoter region” value (APOBEC3B promoter region) was “specifically and robustly recruited”. For the same compound, the “expression levels of canonical and noncanonical NFκB components after PMA treatment” value [3] was “unaffected”, the “time after treatment at which significant APOBEC3B mRNA induction was detected” value (APOBEC3B [4]; PMA 25 ng/ml) was 30 min and the “time post-treatment by which maximal APOBEC3B mRNA levels were observed” value (APOBEC3B [4]; PMA 25 ng/ml) was “three”. The “PMA concentration at which APOBEC3B induction was near maximal” value (APOBEC3B [4]; dose response) was 25 ng/mL and the “lowest PMA concentration that induced APOBEC3B” value (APOBEC3B [4]; dose response) was 1 ng/mL.
In the case of `NC(=O)Nc1sc(-c2ccc(F)cc2)cc1C(N)=O` [TPCA-1], the “effect on PMA-induced APOBEC3B induction” value [2, 5] was “near the IC50 for IKKα, not IKKβ”.
For `N#CC(=C(/N)Sc1ccccc1N)/C(C#N)=C(\N)Sc1ccccc1N` [U0126], the “effect on PMA-induced APOBEC3B induction” value [2, 5] was “no suppression” and the “effect on PMA-induced APOBEC3B induction” value ([2]; 30-minute pretreatment, then PMA 25 ng/mL for six hours, listed as UO126) was “not”.
In the case of `C[C@@H]1C[C@@H]([C@H](O)CC2CC(=O)NC(=O)C2)C(=O)[C@@H](C)C1` [cyclohexamide], the “effect on kinetics of APOBEC3B upregulation by PMA” value ([2]; 30-minute pretreatment with 10 μg/mL cyclohexamide) was “not affected”.
